Values after ≈ are worked out from the molar mass of the structure shown.
Key:
[1] = in vivo; cited from earlier work
[2] = type: physicochemical
Method: Vehicles were evaluated for their capacity to solubilize a cyclic urea compound. Several methods were used. In Method A, vehicles were heated to 70°-80° C. and weighed amounts of the cyclic urea compound were added incrementally until the compound no longer dissolved. This is a visual estimation of solubility. In Method B, vehicles were prepared as in Method A, then cooled to room temperature, and then reheated to 50° C. Suspensions were filtered at 50° C. and compound concentrations in the liltrate filtrate were measured using a high performance liquid chromatographic (HPLC) method, providing the results shown under Method B.
Specifically, the vehicles of Table 1 were prepared and evaluated for solubility of a cyclic urea antiviral agent. The agent for Example 1 was [4R--(4a, 5a, 6β, 7β)]-hexahydro-5,6-bis(hydroxy)-1,3-bis([(4-hydroxymethyl)phenyl]methyl)-4,7-bis(phenylmethyl)-2H-1,3-diazepin-2-one. This compound corresponds to Ex. No. 5U in the above-cited PCT Application WO 93/07128, and is sometimes hereinafter referred to as Ex. No. 5U. In Table 1, all percentages are by weight.

[3] = physchem; type: physicochemical
Excerpt: The cyclic urea antiviral agents of this invention are generally poorly water-soluble. Poor water solubility could be related to low oral bioavailability and dose-related bioavailability. One effect of the formulation ingredients may be to alter water solubility. Water solubility in the presence of dilute concentrations of the formulation ingredients could then be related to oral bioavailability. Dilute formulation ingredients could mimic the dilution of an administered dosage form upon reaching the aqueous environment within the gastrointestinal tract. Aqueous solubility studies of cyclic urea antiviral agents were performed in the presence of dilute concentrations of possible formulation ingredients in this Example 4.
Specifically, aqueous solutions were prepared containing 4% (w/v) of the formulation ingredients listed. Excess solid compound [4R-(4α, 5α, 6β, 7β)]-hexahydro-5,6-bis (hydroxy)-1,3-bis ([(4-hydroxymethyl)phenyl]methyl)-4,7-bis (phenylmethyl)-2H-1,3-diazepin-2-one (Ex. No. 5U) was added and the samples were mixed 24 hours. Samples were filtered, and Ex. No. 5U solubility was determined by measuring filtrate drug concentrations using HPLC.

In the case of `COC1=CC(=O)C[C@@H](C)[C@]12Oc1c(Cl)c(OC)cc(OC)c1C2=O` [griseofulvin], the “oral bioavailability (in words)” value [1] is given as “increased”.

For `O=C1N(Cc2ccc(CO)cc2)[C@H](Cc2ccccc2)[C@H](O)[C@@H](O)[C@@H](Cc2ccccc2)N1Cc1ccc(CO)cc1` [Ex. No. 5U, [4R-(4α, 5α, 6β, 7β)]-hexahydro-5,6-bis(hydroxy)-1,3-bis([(4-hydroxymethyl)phenyl]methyl)-4,7-bis(phenylmethyl)-2H-1,3-diazepin-2-one], the “solubility in vehicle (in words)” value [2] was “increased solubility”, the solubility at 24 h ([3]; 4% peg-60 hydrogenated castor oil, organic solvent or mixture) was 715 µg/mL (≈ 1260 µM) and the solubility at 24 h ([3]; water) was 5 µg/mL (≈ 8.82 µM). The solubility at 24 h ([3]; water with 4% peg-8, organic solvent or mixture) was 12 µg/mL (≈ 21.2 µM), the solubility at 24 h ([3]; water, 4% gelucire 44/14) was 758 µg/mL (≈ 1340 µM) and the solubility at 24 h ([3]; water, 4% glycerol dilaurate, organic solvent or mixture) was 11 µg/mL (≈ 19.4 µM). For the same compound, the solubility at 24 h ([3]; water, 4% labrasol) was 410 µg/mL (≈ 723 µM), the solubility at 24 h ([3]; water, 4% peg-4 laurate, organic solvent or mixture) was 81 µg/mL (≈ 143 µM) and the solubility at 24 h ([3]; water, 4% peg-8 laurate, organic solvent or mixture) was 283 µg/mL (≈ 499 µM). For the same compound, the solubility at 24 h ([3]; water, 4% peg-8 stearate, organic solvent or mixture) was 44 µg/mL (≈ 77.6 µM) and the solubility at 24 h ([3]; water, 4% peg-40 stearate, organic solvent or mixture) was 718 µg/mL (≈ 1270 µM).

Source: patent publication US5559110A, “Pharmaceutical formulations of cyclic urea type compounds” (The DuPont Merck Pharmaceutical Company, priority 1994, dated 1996)
